US20250388605A1, “HETEROBIFUNCTIONAL COMPOUNDS AND METHODS OF TREATING DISEASE” (Halda Therapeutics OpCo, Inc., priority 2022, published 2025)

Tests used:
[1] = molecular target: T1, BRD4-BD1 (Homo sapiens, UniProt O60885); test: Binding affinity to BRD4-BD1 (bromoKdELECT assay); details: 11-point 3-fold dilution series
T1 construct: made in house; host or cells: T7 phage grown in an E. coli host derived from the BL21 strain
Description: (§1) Compounds were tested using a bromoKdELECT assay. T7 phage strains displaying bromodomains were grown in parallel in 24-well blocks in an E. coli host derived from the BL21 strain. E. coli were grown to log-phase and infected with T7 phage from a frozen stock (multiplicity of infection=0.4) and incubated with shaking at 32° C. until lysis (90-150 minutes). The lysates were centrifuged (5,000×g) and filtered ([…]) to remove cell debris. Streptavidin-coated magnetic beads were treated with biotinylated small molecule or acetylated peptide ligands for 30 minutes at room temperature to generate affinity resins for bromodomain assays. The liganded beads were blocked with excess biotin and washed with blocking buffer (SeaBlock (Pierce), 1% BSA, 0.05% Tween 20, 1 mM DTT) to remove unbound ligand and to reduce nonspecific phage binding. Binding reactions were assembled by combining bromodomains, liganded affinity beads, and test compounds in 1× binding buffer (17% SeaBlock, 0.33×PBS, 0.04% Tween 20, 0.02% BSA, 0.004% Sodium azide, 7.4 mM DTT). Test compounds were prepared as 1000× stocks in 100% DMSO. Kds were determined using an 11-point 3-fold compound dilution series with one DMSO control point. All compounds for Kd measurements are distributed by acoustic transfer (non-contact dispensing) in 100% DMSO. The compounds were then diluted directly into the assays such that the final concentration of DMSO was 0.09%. All reactions performed in polypropylene 384-well plates. Each was a final volume of 0.02 ml. The assay plates were incubated at room temperature with shaking for 1 hour and the affinity beads were washed with wash buffer (1×PBS, 0.05% Tween 20). The beads were then resuspended in elution buffer (1×PBS, 0.05% Tween 20, 2 M non-biotinylated affinity ligand) and incubated at room temperature with shaking for 30 minutes. The bromodomain concentration in the eluates was measured by qPCR.

[2] = test system: T-Rex 293 cell line SC3 cells lacking increased expression of androgen receptor protein; test: Cellular growth inhibition, T-Rex 293 SC3 cells without doxycycline (no increased androgen receptor expression), CellTiter-Glo; type: cell-based; details: T-Rex 293 SC3 cells not exposed to doxycycline (no increased androgen receptor expression), 72 hours
Outline: (§2)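 Doxycycline (10 ng/mL) was either included or omitted to toggle wild-type androgen receptor expression in SC3 cells, a T-Rex 293 clone, grown in stripped-serum, phenol red-free medium. After 72 hours with compound, viable cells were quantified by CellTiter-Glo 2.0.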

[3] = molecular target: T2, BRD4-BD2 (Homo sapiens, UniProt O60885); test: Binding affinity to BRD4-BD2 (bromoKdELECT assay); details: 11-point 3-fold dilution series
T2 construct: made in house; host or cells: T7 phage grown in an E. coli host derived from the BL21 strain
Description: as §1, with “2 μM” for “2 M”

[4] = test system: T-Rex 293 cell line SC3 cells having increased expression of androgen receptor protein due to exposure to doxycycline; test: Cellular growth inhibition, T-Rex 293 SC3 cells with doxycycline (increased androgen receptor expression), CellTiter-Glo; type: cell-based; details: T-Rex 293 SC3 cells with 10 ng/mL doxycycline (increased androgen receptor expression), 72 hours, CellTiter-Glo 2.0
Outline: as §2

[5] = test system: VCaP cells; test: Cellular growth inhibition assay for VCaP cells, CellTiter-Glo; type: cell-based, human; details: 72 hours
Outline: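 GI50 values come from four-parameter curve fits of luminescence data normalized to a zero baseline. Compound, in medium with 0.5% DMSO, was added one day after plating and left for 72 h before CellTiter-Glo 2.0 addition.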

[6] = test system: T-Rex 293 cell line SC cells lacking increased expression of progesterone receptor isoform B protein; test: Cellular growth inhibition assay, T-Rex 293 SC cells not exposed to doxycycline (no increased progesterone receptor isoform B expression), CellTiter-Glo; type: cell-based; details: T-Rex 293 SC cells without doxycycline (no increased PR isoform B), 72 hours
Description: (§3) The SC cells were seeded on poly-D-lysine coated, black clear-bottom 384-well plates at 2500/well, in 25 μL Phenol Red Free Dulbecco's Modified Eagle Medium (DMEM) supplemented with 10% w/w charcoal-dextran treated fetal bovine serum (FBS) and 1% w/w pen-strep, with or without 10 ng/mL doxycycline. Pen-Strep is a commercially available mixture of penicillin G and streptomycin, which is used in mammalian cell culture media to prevent bacterial contamination. Phenol Red Free Dulbecco's Modified Eagle Medium (DMEM) supplemented with 10% w/w charcoal-dextran treated fetal bovine serum (FBS) and 1% w/w pen-strep, with or without 10 ng/mL doxycycline is herein referred to as Treatment Medium. Following seeding of cells in the plates, the plates were spun at 300×g for 30 seconds, then equilibrated to room temperature for 30 minutes, and then deposited in a humidified tissue culture incubator maintained at 37° C. with 5% CO2.
(§4) At 24 hours after seeding of the cells, dilutions of test compound were prepared in DMSO and dissolved in Treatment Medium, to achieve a final DMSO concentration of 0.5% w/w, thereby providing the Test Compound Solution. A 25 μL aliquot of the Test Compound Solution was added to cells in the well plates. An equal volume of a solution containing DMSO and Treatment Medium was used as a negative control. Following treatment of cells with Test Compound Solution or said equal volume of a solution containing DMSO and Treatment Medium, the plates were spun at 300×g for 30 seconds, and then left in an incubator for 72 hours.
(§5) At the end of the treatment duration, cell viability was quantified with CellTiter-Glo 2.0 reagent (Promega Cat #G9243). For this purpose, plates were equilibrated to room temperature for 30 minutes, and then 25 μL of CellTiter-Glo 2.0 reagent was added to cells in the plate wells. Plates were then agitated on a shaker for two minutes at 500 rpm and subsequently incubated at room temperature for 10 minutes. Following incubation, the plates were spun at 3000×g for 30 seconds, then sealed with an optical adhesive cover, and luminescence readings were measured with an EnVision Plate Reader (Perkin Elmer).
(§6) Data was normalized using zero luminescence for baseline. A four-parameter non-linear regression curve fit was applied to dose-response data in GraphPad Prism data analysis software to determine the half-maximal growth inhibitory concentration (GI50) for each test compound.

[7] = test system: T-Rex 293 cell line SC cells having increased expression of progesterone receptor isoform B protein; test: Cellular growth inhibition assay, T-Rex 293 SC cells exposed to doxycycline (increased progesterone receptor isoform B expression), CellTiter-Glo; type: cell-based; details: T-Rex 293 SC cells with 10 ng/mL doxycycline (increased PR isoform B), 72 hours
Description: as §3, §4, §5, §6

| Structure (SMILES) | Kd [1] [nM] | Kd [3] [nM] | GI50 ([5]; Homo sapiens) [nM] | GI50 [5] [nM] | GI50 [2] [nM] | GI50 [4] [nM] | GI50 [6] [nM] | GI50 [7] [nM] |
| --- | --- | --- | --- | --- | --- | --- | --- | --- |
| CN(c1ccc(Oc2cccc(OCCN3CCN(c4ncc(C(=O)N[C@H]5C(C)(C)[C@H](Oc6ccc(C#N)c(Cl)c6)C5(C)C)cn4)CC3)c2)c(-c2cn(C)c(=O)c3[nH]ccc23)c1)S(=O)(=O)C1CC1 [Compound I-95] | 500 to 2500 | 50 to 500 | < 500 | – | < 500 | < 500 | – | – |
| CCS(=O)(=O)Cc1ccc(Oc2cccc(OCCC3CCN(c4ncc(C(=O)N[C@H]5C(C)(C)[C@H](Oc6ccc(C#N)c(Cl)c6)C5(C)C)cn4)CC3)c2)c(-c2cn(C)c(=O)c3[nH]ccc23)c1 [Compound I-109] | > 2500 | 500 to 2500 | – | < 500 | < 500 | < 500 | – | – |
| CCS(=O)(=O)c1ccc(Oc2cccc(OCCCC3CCN(c4ncc(C(=O)N[C@H]5C(C)(C)[C@H](Oc6ccc(C#N)c(Cl)c6)C5(C)C)cn4)CC3)c2F)c(-c2cn(C)c(=O)c3[nH]ccc23)c1 [Compound I-140] | > 2500 | > 2500 | 1500 to 3000 | – | < 500 | < 500 | – | – |
| CCS(=O)(=O)Cc1ccc(Oc2cccc(CCCN3CCN(c4ncc(C(=O)N[C@H]5C(C)(C)[C@H](Oc6ccc(C#N)c(Cl)c6)C5(C)C)cn4)CC3)c2F)c(-c2cn(C)c(=O)c3[nH]ccc23)c1 [Compound I-144] | 50 to 500 | < 50 | – | < 500 | < 500 | < 500 | – | – |
| Cn1cc(-c2cc(NS(=O)(=O)CC(F)(F)F)ccc2Oc2cccc(OCCOC3CCN(c4ncc(C(=O)N[C@H]5C(C)(C)[C@H](Oc6ccc(C#N)c(Cl)c6)C5(C)C)cn4)CC3)c2F)c2cc[nH]c2c1=O [Compound I-153] | 500 to 2500 | < 50 | < 500 | – | < 500 | < 500 | – | – |
| CCS(=O)(=O)Nc1ccc(OCC(OCCCOC2CCN(c3ncc(C(=O)N[C@H]4C(C)(C)[C@H](Oc5ccc(C#N)c(Cl)c5)C4(C)C)cn3)CC2)C2CC2)c(-c2cn(C)c(=O)c3[nH]ccc23)c1 (stereo partly drawn) [Compound I-187] | 50 to 500 | 500 to 2500 | – | < 500 | > 3000 | < 500 | – | – |
| CCS(=O)(=O)c1ccc(Oc2cccc(OCCN3CCN(c4ncc(C(=O)N[C@H]5C(C)(C)[C@H](Oc6ccc(C#N)c(Cl)c6)C5(C)C)cn4)CC3)c2F)c(-c2cn(C)c(=O)c3[nH]ccc23)c1 [Compound I-207] | – | – | – | < 500 | < 500 | < 500 | < 500 | < 500 |

Second part, led by results:

| Kd [1] [nM] | Kd [3] [nM] | GI50 ([5]; Homo sapiens) [nM] | GI50 [5] [nM] | Structure (SMILES) | GI50 [2] [nM] | GI50 [4] [nM] | GI50 [6] [nM] | GI50 [7] [nM] |
| --- | --- | --- | --- | --- | --- | --- | --- | --- |
| 50 to 500 | 50 to 500 | < 500 | – | CCS(=O)(=O)Nc1ccc(OCC(OCCOC2CCN(c3ncc(C(=O)N[C@H]4C(C)(C)[C@H](Oc5ccc(C#N)c(Cl)c5)C4(C)C)cn3)CC2)C2CC2)c(-c2cn(C)c(=O)c3[nH]ccc23)c1 (stereo partly drawn) [Compound I-68, N-((1r, 3r)-3-(3-chloro-4-cyanophenoxy)-2,2,4,4-tetramethylcyclobutyl)-2-(4-(2-(1-cyclopropyl-2-(4-(ethylsulfonamido)-2-(6-methyl-7-oxo-6,7-dihydro-1H-pyrrolo[2,3-c]pyridin-4-yl)phenoxy)ethoxy)ethoxy)piperidin-1-yl)pyrimidine-5-carboxamide] | > 3000 | < 500 | – | – |
| 50 to 500 | < 50 | – | < 500 | CCS(=O)(=O)Cc1ccc(Oc2cccc(OCCN3CCN(c4ncc(C(=O)N[C@H]5C(C)(C)[C@H](Oc6ccc(C#N)c(Cl)c6)C5(C)C)cn4)CC3)c2)c(-c2cn(C)c(=O)c3[nH]ccc23)c1 [Compound I-106] | < 500 | < 500 | – | – |
| 50 to 500 | < 50 | – | < 500 | CCS(=O)(=O)Cc1ccc(Oc2cccc(CCCN3CCN(c4ncc(C(=O)N[C@H]5C(C)(C)[C@H](Oc6ccc(C#N)c(Cl)c6)C5(C)C)cn4)CC3)c2)c(-c2cn(C)c(=O)c3[nH]ccc23)c1 [Compound I-133] | < 500 | < 500 | – | – |
| 50 to 500 | < 50 | < 500 | – | CCS(=O)(=O)Nc1ccc(Oc2ccc(CCOC3CCN(c4ncc(C(=O)N[C@H]5C(C)(C)[C@H](Oc6ccc(C#N)c(Cl)c6)C5(C)C)cn4)CC3)cc2)c(-c2cn(C)c(=O)c3[nH]ccc23)c1 [Compound I-151] | < 500 | < 500 | – | – |
| 50 to 500 | 50 to 500 | < 500 | – | CCS(=O)(=O)c1ccc(OC(COCCOC2CCN(c3ncc(C(=O)NC4C(C)(C)C(Oc5ccc(C#N)c(Cl)c5)C4(C)C)cn3)CC2)C2CC2)c(-c2cn(C)c(=O)c3[nH]ccc23)c1 (stereo not drawn) [Compound I-186, N-[3-(3-chloro-4-cyano-phenoxy)-2,2,4,4-tetramethyl-cyclobutyl]-2-[4-[2-[2-cyclopropyl-2-[4-ethylsulfonyl-2-(6-methyl-7-oxo-1H-pyrrolo[2,3-c]pyridin-4-yl)phenoxy]ethoxy]ethoxy]-1-piperidyl]pyrimidine-5-carboxamide] | < 500 | < 500 | – | – |
